Legend:
Type in all cases: ADME
Set-up in all cases: dose 2 uM
Details in all cases: 2 µM
[1] = target: T1, Acetyl esterase (Acetylxylosidase) (Bacteroides thetaiotaomicron, UniProt Q8ABF8); assay: (§1) The drug is tested on Bacteroides thetaiotaomicron strain: VPI-5482 for biotransformation. The drug concentrations were measured before and after a 12-h incubation by liquid-chromatography-coupled mass spectrometry (LC–MS)
T1 sequence (Q8ABF8 whole entry): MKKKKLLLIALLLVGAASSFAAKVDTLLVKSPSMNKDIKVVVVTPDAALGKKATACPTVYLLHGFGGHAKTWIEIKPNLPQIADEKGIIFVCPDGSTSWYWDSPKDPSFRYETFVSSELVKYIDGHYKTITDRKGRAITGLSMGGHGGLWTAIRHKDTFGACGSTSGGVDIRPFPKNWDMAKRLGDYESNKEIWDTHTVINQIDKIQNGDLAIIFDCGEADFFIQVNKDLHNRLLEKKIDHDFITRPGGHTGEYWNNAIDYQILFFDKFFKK

Acylhydrolase = target: T2, Acylhydrolase (Bacteroides thetaiotaomicron, UniProt Q8AA96); assay: as §1
T2 sequence (Q8AA96 whole entry): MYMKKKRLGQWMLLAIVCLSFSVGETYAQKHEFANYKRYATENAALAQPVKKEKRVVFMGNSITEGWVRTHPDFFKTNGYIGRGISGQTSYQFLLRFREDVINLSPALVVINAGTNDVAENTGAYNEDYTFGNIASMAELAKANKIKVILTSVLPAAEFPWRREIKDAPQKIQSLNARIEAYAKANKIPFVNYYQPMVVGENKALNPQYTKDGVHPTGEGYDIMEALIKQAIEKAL

General stress protein = General stress protein (Bacteroides thetaiotaomicron, UniProt Q8A7U5); assay: as §1
Chain of General stress protein (Q8A7U5 1-138, change not shown): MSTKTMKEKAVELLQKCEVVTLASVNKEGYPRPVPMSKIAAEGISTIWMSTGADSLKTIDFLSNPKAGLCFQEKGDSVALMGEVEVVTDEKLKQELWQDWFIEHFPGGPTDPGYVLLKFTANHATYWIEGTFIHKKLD

Lipase = target: T3, Lipase (Bacteroides thetaiotaomicron, UniProt Q8A3J3); assay: as §1
T3 sequence (Q8A3J3 whole entry): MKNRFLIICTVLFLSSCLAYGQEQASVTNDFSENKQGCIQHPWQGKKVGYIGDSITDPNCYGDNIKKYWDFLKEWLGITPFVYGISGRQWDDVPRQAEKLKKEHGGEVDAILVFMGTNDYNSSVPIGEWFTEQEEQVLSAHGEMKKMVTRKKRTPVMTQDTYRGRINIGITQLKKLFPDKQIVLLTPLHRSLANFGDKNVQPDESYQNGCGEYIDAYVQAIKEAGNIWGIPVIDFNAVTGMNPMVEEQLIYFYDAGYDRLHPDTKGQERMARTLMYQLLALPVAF

[2] = target: T4, Lipolytic enzyme, G-D-S-L family (Bacteroides thetaiotaomicron, UniProt Q8A0C5); assay: as §1
T4 sequence (Q8A0C5 whole entry): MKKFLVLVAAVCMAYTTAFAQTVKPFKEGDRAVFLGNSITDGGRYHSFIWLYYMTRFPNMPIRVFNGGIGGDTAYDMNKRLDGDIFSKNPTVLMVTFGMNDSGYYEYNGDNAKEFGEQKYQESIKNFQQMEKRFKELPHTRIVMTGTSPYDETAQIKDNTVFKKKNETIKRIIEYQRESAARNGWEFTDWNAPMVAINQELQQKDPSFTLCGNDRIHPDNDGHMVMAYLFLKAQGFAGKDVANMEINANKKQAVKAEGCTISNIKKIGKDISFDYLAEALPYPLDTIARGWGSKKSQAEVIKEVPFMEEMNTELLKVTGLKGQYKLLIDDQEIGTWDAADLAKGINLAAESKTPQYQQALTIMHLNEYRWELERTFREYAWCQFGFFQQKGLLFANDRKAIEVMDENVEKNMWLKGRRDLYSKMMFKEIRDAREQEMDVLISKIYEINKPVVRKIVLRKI

Lipoprotein = target: T5, Lipoprotein (Bacteroides thetaiotaomicron, UniProt Q8A343); assay: as §1
T5 sequence (Q8A343 whole entry): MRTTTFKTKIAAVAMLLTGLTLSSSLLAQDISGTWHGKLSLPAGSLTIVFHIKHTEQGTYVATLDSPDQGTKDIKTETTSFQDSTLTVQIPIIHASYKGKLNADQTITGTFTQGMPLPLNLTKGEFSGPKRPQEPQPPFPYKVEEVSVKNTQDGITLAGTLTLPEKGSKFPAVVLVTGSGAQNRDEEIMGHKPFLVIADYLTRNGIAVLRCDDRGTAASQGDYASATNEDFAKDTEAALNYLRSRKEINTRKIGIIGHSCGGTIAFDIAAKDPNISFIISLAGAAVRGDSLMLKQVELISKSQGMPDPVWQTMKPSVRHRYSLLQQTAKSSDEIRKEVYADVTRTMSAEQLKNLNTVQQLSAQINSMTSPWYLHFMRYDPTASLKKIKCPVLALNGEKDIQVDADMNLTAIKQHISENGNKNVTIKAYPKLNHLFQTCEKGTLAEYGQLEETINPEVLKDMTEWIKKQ

[3] = target: T6, NADH dehydrogenase/NAD(P)H nitroreductase (Bacteroides thetaiotaomicron, UniProt Q8A8L9); assay: as §1
T6 sequence (Q8A8L9 whole entry): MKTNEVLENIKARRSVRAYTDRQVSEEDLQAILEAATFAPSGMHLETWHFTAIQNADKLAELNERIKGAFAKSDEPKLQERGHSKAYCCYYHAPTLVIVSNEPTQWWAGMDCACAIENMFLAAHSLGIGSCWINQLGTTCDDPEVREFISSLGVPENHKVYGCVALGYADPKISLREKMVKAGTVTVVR

[4] = target: T7, Nitroreductase-like protein (Bacteroides thetaiotaomicron, UniProt Q8AB93); assay: as §1
T7 sequence (Q8AB93 whole entry): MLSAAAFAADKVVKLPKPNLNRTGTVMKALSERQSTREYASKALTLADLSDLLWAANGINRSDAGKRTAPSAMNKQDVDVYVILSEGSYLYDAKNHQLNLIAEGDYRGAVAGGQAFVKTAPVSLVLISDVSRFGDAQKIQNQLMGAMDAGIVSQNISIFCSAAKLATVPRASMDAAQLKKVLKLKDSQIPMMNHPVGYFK

Regulatory protein = target: T8, Regulatory protein (Bacteroides thetaiotaomicron, UniProt Q8A576); assay: as §1
T8 sequence (Q8A576 whole entry): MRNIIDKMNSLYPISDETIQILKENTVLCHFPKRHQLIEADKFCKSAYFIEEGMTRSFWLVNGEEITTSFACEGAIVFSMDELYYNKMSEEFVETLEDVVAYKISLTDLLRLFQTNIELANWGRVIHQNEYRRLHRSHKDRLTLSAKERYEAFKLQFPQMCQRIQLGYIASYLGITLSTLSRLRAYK

Xylanase = target: T9, Xylanase (Bacteroides thetaiotaomicron, UniProt Q8A8H5); assay: as §1
T9 sequence (Q8A8H5 whole entry): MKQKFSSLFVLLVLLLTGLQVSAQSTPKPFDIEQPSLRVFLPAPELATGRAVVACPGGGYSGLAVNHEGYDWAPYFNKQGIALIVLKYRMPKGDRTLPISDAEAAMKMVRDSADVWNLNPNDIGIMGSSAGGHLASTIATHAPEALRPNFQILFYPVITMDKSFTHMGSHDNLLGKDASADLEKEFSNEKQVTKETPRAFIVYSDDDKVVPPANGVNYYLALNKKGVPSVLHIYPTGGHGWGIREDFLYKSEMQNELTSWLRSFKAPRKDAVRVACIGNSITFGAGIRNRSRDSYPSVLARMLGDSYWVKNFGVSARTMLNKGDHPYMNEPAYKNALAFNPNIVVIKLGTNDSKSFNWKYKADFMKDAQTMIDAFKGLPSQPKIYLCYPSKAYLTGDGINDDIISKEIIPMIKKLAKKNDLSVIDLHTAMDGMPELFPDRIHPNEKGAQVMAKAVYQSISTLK

| Bacterial Biotransformation [1] | Bacterial Biotransformation (Acylhydrolase) | Bacterial Biotransformation (General stress protein) | Bacterial Biotransformation (Lipase) | Bacterial Biotransformation [2] | Bacterial Biotransformation (Lipoprotein) | Bacterial Biotransformation [3] | Bacterial Biotransformation [4] | Bacterial Biotransformation (Regulatory protein) | Bacterial Biotransformation (Xylanase) | SMILES |
| --- | --- | --- | --- | --- | --- | --- | --- | --- | --- | --- |
| Compound NOT metabolized | Compound NOT metabolized | Compound NOT metabolized | Compound NOT metabolized | Compound NOT metabolized | Compound NOT metabolized | Compound NOT metabolized | Compound NOT metabolized | Compound NOT metabolized | Compound NOT metabolized | C[C@]12CCC(=O)C=C1[C@@H]1C[C@@H]1[C@H]1[C@@H]3[C@@H]4C[C@@H]4[C@@]4(CCC(=O)O4)[C@@]3(C)CC[C@@H]12 [DROSPIRENONE] |
| Compound NOT metabolized | Compound NOT metabolized | Compound NOT metabolized | Compound NOT metabolized | Compound NOT metabolized | Compound NOT metabolized | Compound NOT metabolized | Compound NOT metabolized | Compound NOT metabolized | Compound NOT metabolized | N#Cc1ccc2c(c1)N(CCCN1CCC(O)CC1)c1ccccc1S2 [PERICIAZINE] |
